We go through 2 molecules from PMC2982820, “Characterisation of PduS, the pdu Metabolosome Corrin Reductase, and Evidence of Substructural Organisation within the Bacterial Microcompartment” (PLoS ONE, 2010).

As a reminder, the Km is the substrate concentration at which the rate is half of its maximum.

The target of one series is T1, PduS (Citrobacter freundii, UniProt B1VB77).
T1 construct: full length, N-terminal hexa-His tag (pET14b, pJP024; template pAR3114), E. coli BL21(DE3)pLysS; FMN and two [4Fe-4S] when purified anaerobically
T1 sequence (B1VB77 1-451): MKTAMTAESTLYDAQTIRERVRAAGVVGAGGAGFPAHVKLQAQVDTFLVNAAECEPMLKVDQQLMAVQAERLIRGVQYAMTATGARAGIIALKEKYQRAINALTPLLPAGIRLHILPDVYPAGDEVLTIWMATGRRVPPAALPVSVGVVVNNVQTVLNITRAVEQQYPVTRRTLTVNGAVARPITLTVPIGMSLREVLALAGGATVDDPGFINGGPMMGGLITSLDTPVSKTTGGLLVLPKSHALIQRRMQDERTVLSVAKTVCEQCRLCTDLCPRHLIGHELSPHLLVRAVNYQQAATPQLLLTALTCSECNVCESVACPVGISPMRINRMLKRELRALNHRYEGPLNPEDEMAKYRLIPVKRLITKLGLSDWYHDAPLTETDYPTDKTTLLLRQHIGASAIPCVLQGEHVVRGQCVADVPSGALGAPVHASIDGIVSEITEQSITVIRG
Nature of the series: heat release of bound flavin, RP-HPLC-MS against FMN and FAD standards. Type of series: binding. Conditions: non-covalently bound, co-purified.

Substrate in the series “purified protein”: NC(=O)C1=CN([C@@H]2O[C@H](COP(=O)(O)OP(=O)(O)OC[C@H]3O[C@@H](n4cnc5c(N)ncnc54)[C@H](O)[C@@H]3O)[C@@H](O)[C@H]2O)C=CC1
As to the kind of experiment: purified protein. Type of series: biochemical, Citrobacter freundii. Conditions: cob(III)alamin as co-substrate, 20 mM Tris-HCl pH 8.0, 37 °C, anaerobic.

With `Cc1cc2nc3c(=O)[nH]c(=O)nc-3n(C[C@H](O)[C@H](O)[C@H](O)COP(=O)(O)O)c2cc1C` [FMN], the “heat release of bound flavin, RP-HPLC-MS against FMN and FAD standards” value at PduS is “flavin extracted from PduS was found to have a retention time identical to authentic FMN”.

B1: PduS (Citrobacter freundii) (protein)
chain: MKTAMTAESTLYDAQTIRERVRAAGVVGAGGAGFPAHVKLQAQVDTFLVNAAECEPMLKVDQQLMAVQAERLIRGVQYAMTATGARAGIIALKEKYQRAINALTPLLPAGIRLHILPDVYPAGDEVLTIWMATGRRVPPAALPVSVGVVVNNVQTVLNITRAVEQQYPVTRRTLTVNGAVARPITLTVPIGMSLREVLALAGGATVDDPGFINGGPMMGGLITSLDTPVSKTTGGLLVLPKSHALIQRRMQDERTVLSVAKTVCEQCRLCTDLCPRHLIGHELSPHLLVRAVNYQQAATPQLLLTALTCSECNVCESVACPVGISPMRINRMLKRELRALNHRYEGPLNPEDEMAKYRLIPVKRLITKLGLSDWYHDAPLTETDYPTDKTTLLLRQHIGASAIPCVLQGEHVVRGQCVADVPSGALGAPVHASIDGIVSEITEQSITVIRG
notes: full length, N-terminal hexa-His tag (pET14b, pJP024; template pAR3114), E. coli BL21(DE3)pLysS; FMN and two [4Fe-4S] when purified anaerobically
On to B1, for which, in “purified protein”, the Km is recorded as 24.7 µM.
